For 32 compounds, IC50 results are on record in US11267811B2, “Small molecule inhibitors of galectin-3” (BRISTOL-MYERS SQUIBB COMPANY, priority 2017, dated 2022).

Molecules are shown by their SMILES. Like-named read-outs stand apart in the source and are kept apart here.

The assay concerns the target His-tagged recombinant human Gal-3 (hGal-3) (Homo sapiens (Human), UniProt P17931). In words: Gal-3 HTRF assay (His-tagged hGal-3 binding to B-ASF).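 Note: compounds preincubated 30 min with hGal-3, then 1 h with B-ASF, detection via terbium anti-His antibody and streptavidin d2. Control with B-ASF counts as full signal, omitting B-ASF as background.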 On the technique in general: TR-FRET usually uses a lanthanide donor and a delayed reading to cut background.
Setting [1] is: HTRF, hGal-3 15 nM, B-ASF 15 nM, read-out: hGal-3 IC50.

Chain of His-tagged recombinant human Gal-3 (hGal-3) (P17931 whole entry): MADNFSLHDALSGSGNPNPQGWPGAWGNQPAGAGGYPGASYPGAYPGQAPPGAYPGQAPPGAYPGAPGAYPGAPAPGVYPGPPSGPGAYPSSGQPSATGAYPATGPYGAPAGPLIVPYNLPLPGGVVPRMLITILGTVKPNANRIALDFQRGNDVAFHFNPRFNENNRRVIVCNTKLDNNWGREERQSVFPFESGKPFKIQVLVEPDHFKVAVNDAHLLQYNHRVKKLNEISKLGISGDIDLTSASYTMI

As for `Cc1nnc([C@@H]2O[C@H](CO)[C@H](O)[C@H](n3cc(-c4cc(F)c(F)c(F)c4)nn3)[C@H]2O)n1-c1cccc(Cl)c1` [Example 272, (2S,3R,4R,5R,6R)-2-(4-(3-chlorophenyl)-5-methyl-4H-1,2,4-triazol-3-yl)-6-(hydroxymethyl)-4-(4-(3,4,5-trifluorophenyl)-1H-1,2,3-triazol-1-yl)tetrahydro-2H-pyran-3,5-diol], the IC50 under setting [1] stood at 70 nM. On to `Cc1nc2ccc(-n3ncnc3[C@@H]3O[C@H](CO)[C@H](O)[C@H](n4cc(-c5ccc(OC(F)(F)F)c(F)c5)nn4)[C@H]3O)cc2s1` [Example 229], for which the IC50 (read-out: hGal3 IC50) is 980 nM. As to `Cc1nc([C@@H]2O[C@H](CO)[C@H](O)[C@H](n3cc(-c4ccc(Cl)c(F)c4)nn3)[C@H]2O)n(-c2cc(C(F)(F)F)ccc2Cl)n1` [Example 255], the IC50 (read-out: hGal3 IC50) amounted to 70 nM. Regarding `OC[C@H]1O[C@@H](c2ncnn2-c2ccc3nc(N4CCOCC4)sc3c2)[C@H](O)[C@@H](n2cc(-c3cc(F)c(F)c(F)c3)nn2)[C@H]1O` [Example 50], under setting [1], the IC50 turned out to be 120 nM. Take `Cc1nc2ccc(-n3ncnc3[C@@H]3O[C@H](CO)[C@H](O)[C@H](n4cc(-c5ccc(Cl)c(F)c5)nn4)[C@H]3O)cc2s1` [Example 217]: the IC50 (read-out: hGal3 IC50) stood at 70 nM. As for `CN(C)c1ccc(-n2cnnc2[C@@H]2O[C@H](CO)[C@H](O)[C@H](n3cc(-c4cc(F)c(F)c(F)c4)nn3)[C@H]2O)cc1` [Example 91], the IC50 under setting [1] turned out to be 690 nM.

Take `COc1cccc(-n2cnnc2[C@@H]2O[C@H](CO)[C@H](O)[C@H](n3cc(-c4cc(F)c(F)c(F)c4)nn3)[C@H]2O)n1` [Example 134]: the IC50 under setting [1] turned out to be 570 nM. Regarding `Cc1cccc(-n2ncnc2[C@@H]2O[C@H](CO)[C@H](O)[C@H](n3cc(-c4cc(F)c(F)c(F)c4)nn3)[C@H]2O)c1` [Example 26], under setting [1], the IC50 came to 230 nM.

Consider `Cc1nc([C@@H]2O[C@H](CO)[C@H](O)[C@H](n3cc(-c4ncc(Cl)cc4Cl)nn3)[C@H]2O)n(-c2cc(Cl)ccc2C(F)(F)F)n1` [Example A62], for which the IC50 (read-out: hGal IC50) was found to be 172 nM. With `COc1cccc(-n2ncnc2[C@@H]2O[C@H](CO)[C@H](O)[C@H](n3cc(-c4cc(F)c(F)c(F)c4)nn3)[C@H]2O)c1` [Example 23], the half-maximal inhibitory concentration (IC50) under setting [1] turned out to be 150 nM.

For `Cc1nc2ccc(-n3ncnc3[C@@H]3O[C@H](CO)[C@H](O)[C@H](n4cc(-c5ccc(Br)cc5)nn4)[C@H]3O)cc2s1` [Example 225], the concentration for half-maximal inhibition (IC50) (read-out: hGal3 IC50) came out at 210 nM. `Cc1nc([C@@H]2O[C@H](CO)[C@H](O)[C@H](n3cc(-c4cc(F)c(Cl)c(F)c4)nn3)[C@H]2O)n(-c2cc(Cl)cc3cccnc23)n1` [Example A11]: the IC50 (read-out: hGal IC50) stood at 17 nM. `Cc1nc2ccc(-n3ncnc3[C@@H]3O[C@H](CO)[C@H](O)[C@H](n4cc(-c5ccc(Br)c(F)c5)nn4)[C@H]3O)cc2s1` [Example 216]: the IC50 (read-out: hGal3 IC50) turned out to be 50 nM. As for `Cc1nc([C@@H]2O[C@H](CO)[C@H](O)[C@H](n3cc(-c4ccc(Br)c(F)c4)nn3)[C@H]2O)n(-c2cc(Cl)cnc2C(F)(F)F)n1` [Example A71], the IC50 (read-out: hGal IC50) turned out to be 49 nM. Take `OC[C@H]1O[C@@H](c2oncc2-c2cccc(Cl)c2)[C@H](O)[C@@H](n2cc(-c3cc(F)c(F)c(F)c3)nn2)[C@H]1O` [Ex 289]: the IC50 (read-out: hGal3 IC50) was determined as 8100 nM. Regarding `Cc1nc2ccc(-n3c(C)nnc3[C@@H]3O[C@H](CO)[C@H](O)[C@H](n4cc(-c5cc(F)c(F)c(F)c5)nn4)[C@H]3O)cc2s1` [Example 273, (2R,3R,4R,5R,6S)-2-(hydroxymethyl)-6-(5-methyl-4-(2-methylbenzo[d]thiazol-6-yl)-4H-1,2,4-triazol-3-yl)-4-(4-(3,4,5-trifluorophenyl)-1H-1,2,3-triazol-1-yl)tetrahydro-2H-pyran-3,5-diol], the IC50 under setting [1] is 40 nM. Take `COc1ccc(-n2cnnc2[C@@H]2O[C@H](CO)[C@H](O)[C@H](n3cc(-c4cc(F)c(F)c(F)c4)nn3)[C@H]2O)cc1OC` [Example 79]: the IC50 under setting [1] stood at 170 nM. As to `Cc1nc([C@@H]2O[C@H](CO)[C@H](O)[C@H](n3cc(-c4ccc(Cl)c(F)c4)nn3)[C@H]2O)n(-c2cc(Cl)c(F)cc2Cl)n1` [Example A47], the IC50 (read-out: hGal IC50) stood at 54 nM. Still for that read-out and setting: then `Cc1nc([C@@H]2O[C@H](CO)[C@H](O)[C@H](n3cc(-c4cc(F)c(Cl)c(F)c4)nn3)[C@H]2O)n(-c2cc(Cl)cc3ncccc23)n1` [Example A16], with 51 nM; and `COc1ccc(C(F)(F)F)c(-n2nc(C)nc2[C@@H]2O[C@H](CO)[C@H](O)[C@H](n3cc(-c4cc(F)c(Cl)c(F)c4)nn3)[C@H]2O)c1` [Example A64], with 42 nM. In the case of `Cc1nc2ccc(-n3ncnc3[C@@H]3O[C@H](CO)[C@H](O)[C@H](n4cc(-c5ccccc5)nn4)[C@H]3O)cc2s1` [Example 214], for the setting “read-out: hGal3 IC50”, the IC50 came to 600 nM.

As for `Cc1nc([C@@H]2O[C@H](CO)[C@H](O)[C@H](n3cc(-c4cc(F)c(F)c(F)c4)nn3)[C@H]2O)n(-c2cc(Cl)ccc2C#N)n1` [Example 64], the half-maximal inhibitory concentration (IC50) under setting [1] is 90 nM. Turning to `Cc1nc([C@@H]2O[C@H](CO)[C@H](O)[C@H](n3cc(-c4ncc(Cl)cc4F)nn3)[C@H]2O)n(-c2cc(Cl)ccc2C(F)(F)F)n1` [Example A59], the IC50 (read-out: hGal IC50) amounted to 158 nM. In the case of `Cc1nc([C@@H]2O[C@H](CO)[C@H](O)[C@H](n3cc(-c4cc(F)c(F)c(F)c4)nn3)[C@H]2O)n(-c2ccc3nc(C)sc3c2)n1` [Example 57, (2R,3R,4R,5R,6S)-2-(hydroxymethyl)-6-(3-methyl-1-(2-methylbenzo[d]thiazol-6-yl)-1H-1,2,4-triazol-5-yl)-4-(4-(3,4,5-trifluorophenyl)-1H-1,2,3-triazol-1-yl)tetrahydro-2H-pyran-3,5-diol], the IC50 under setting [1] was found to be 50 nM. Turning to `Cc1nnc([C@@H]2O[C@H](CO)[C@H](O)[C@H](n3cc(-c4cc(F)c(Cl)c(F)c4)nn3)[C@H]2O)n1-c1cc(Cl)ccc1C(F)(F)F` [Example 311], the IC50 (read-out: hGal3 IC50) turned out to be 12 nM. In the case of `Cc1nc([C@@H]2O[C@H](CO)[C@H](O)[C@H](n3cc(-c4cc(F)c(Cl)c(Cl)c4)nn3)[C@H]2O)n(-c2cc(Cl)ccc2C(F)(F)F)n1` [Example A55], the IC50 (read-out: hGal IC50) worked out at 20 nM. With `COc1cc(-n2cnnc2[C@@H]2O[C@H](CO)[C@H](O)[C@H](n3cc(-c4cc(F)c(F)c(F)c4)nn3)[C@H]2O)ccn1` [Example 133], the IC50 under setting [1] was 200 nM. Take `Cc1nc([C@H]2C[C@@H](n3cc(-c4cc(F)c(Cl)c(F)c4)nn3)[C@@H](O)[C@@H](CO)O2)n(-c2cc(Cl)ccc2C)n1` [Example 263]: the IC50 (read-out: hGal3 IC50) was found to be 120 nM.

As to `COC(=O)c1cc2ccc(-n3cnnc3[C@@H]3O[C@H](CO)[C@H](O)[C@H](n4cc(-c5cc(F)c(F)c(F)c5)nn4)[C@H]3O)cc2s1` [Example 163], under setting [1], the IC50 was 220 nM. `OC[C@H]1O[C@@H](c2nncn2-c2cc(Cl)ccc2Cl)[C@H](O)[C@@H](n2cc(-c3cc(F)c(Cl)c(F)c3)nn2)[C@H]1O` [Example 326, (2S,3R,4R,5R,6R)-4-(4-(4-chloro-3,5-difluorophenyl)-1H-1,2,3-triazol-1-yl)-2-(4-(2,5-dichlorophenyl)-4H-1,2,4-triazol-3-yl)-6-(hydroxymethyl)tetrahydro-2H-py ran-3,5-diol]: the IC50 under setting [1] stood at 44 nM. On to `Cc1nc([C@@H]2O[C@H](CO)[C@H](O)[C@H](n3cc(-c4cc(F)c(F)c(F)c4)nn3)[C@H]2O)n(-c2cc(F)ccc2C(F)(F)F)n1` [Example 71], for which, under setting [1], the half-inhibitory concentration (IC50) was found to be 90 nM. `OC[C@H]1O[C@@H](c2ncnn2Cc2ccccc2)[C@H](O)[C@@H](n2cc(-c3cc(F)c(F)c(F)c3)nn2)[C@H]1O` [Example 28]: the 50% inhibitory concentration (IC50) under setting [1] is 1470 nM.

A word on the IC50: it is the midpoint of a concentration-inhibition curve.
